Source: patent US7375096B1, “Method of preparing a supramolecular complex containing a therapeutic agent and a multi-dimensional polymer network” (California Institute of Technology, priority 1998, dated 2008)

Key:
DNA = assay: Pentalysine DNA binding with crosslinker DTBP and reducing agent TCEP (agarose gel)
Experimental: Pentalysine was added to DNA for 15 minutes. Crosslinker DTBP was then added to the solution mixture for over 60 minutes. TCEP was added and an agarose gel was run after 30 minutes. […] Thus, crosslinking with DTBP increased the affinity of pentalysine to DNA.

Experimental for BHK-21 cells: BHK-21 cells were plated in 24 well plates at a cell density of 60,000 cells/well 24 hours before transfection. […] Media solution containing the DNA/polymer complexes was added to cultured cells and replaced with fresh media after 24 hours of incubation at 37° C. The cells were lysed 48 hours after transfection. […] Cell lysate was also used to determine cell viability by the Lowry protein assay.

| Substance | binding to DNA (DNA) | toxicity (cell viability, Lowry protein assay) (BHK-21 cells) |
| --- | --- | --- |
| Pentalysine | not strong enough to bind to the DNA | – |
| β-Cyclodextrin(cystamine)-DMS copolymer [copolymer 15] | – | No toxicity was observed |
